The target of data set [1] is T1, SOAT1 (Homo sapiens, UniProt P35610).
T1 sequence (P35610 1-550): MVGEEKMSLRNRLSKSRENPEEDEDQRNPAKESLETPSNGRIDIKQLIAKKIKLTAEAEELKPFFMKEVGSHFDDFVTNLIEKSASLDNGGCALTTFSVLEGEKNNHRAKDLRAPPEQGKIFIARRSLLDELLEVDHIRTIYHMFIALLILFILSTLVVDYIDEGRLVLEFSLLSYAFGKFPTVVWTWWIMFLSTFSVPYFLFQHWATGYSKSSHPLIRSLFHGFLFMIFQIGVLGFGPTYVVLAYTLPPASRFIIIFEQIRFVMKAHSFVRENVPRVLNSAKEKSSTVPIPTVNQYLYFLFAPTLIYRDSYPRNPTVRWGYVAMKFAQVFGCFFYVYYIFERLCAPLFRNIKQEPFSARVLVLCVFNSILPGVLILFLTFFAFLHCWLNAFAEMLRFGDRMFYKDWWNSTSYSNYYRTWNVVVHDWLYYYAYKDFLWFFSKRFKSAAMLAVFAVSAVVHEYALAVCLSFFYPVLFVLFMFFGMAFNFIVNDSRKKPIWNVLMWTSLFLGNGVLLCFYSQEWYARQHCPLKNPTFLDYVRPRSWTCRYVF
As to the kind of experiment: SPR single-concentration screen (Biacore T200, CM5 chip, immobilised SOAT1). The following applies: 100 nmol/L compound; PBS with 5% DMSO; positive control. Format: binding.

In data set [2] the target is T1, SOAT1. As to the kind of experiment: SPR (Biacore T200, CM5 chip, immobilised SOAT1). Format: binding. The following applies: PBS running buffer with 5% DMSO; 0.0195 nM to 20 μM. A general note: SPR reads the build-up and loss of mass on a sensor chip optically.
Data set [3] deals with the molecule itself. As to the kind of experiment: SEC; Superdex 200 10/300 GL in 25 mM Tris pH 8.0, 150 mM NaCl, 0.02% GDN, after nickel affinity purification; fractions checked by SDS-PAGE. (In general: In gel filtration, larger molecules generally elute earlier.)

Regarding `CCCCCCCCCCC(C)(C)C(=O)Nc1c(OC)cc(OC)cc1OC` [CI-976], on SOAT1 [1], the “SPR single-concentration screen (Biacore T200, CM5 chip, immobilised SOAT1)” value was “including three positive controls: avasimibe, nevanimibe, and CI-976”. On SOAT1 [2], `Cc1cn(-c2cc(NC(=O)c3ccc(C)c(Nc4nccc(-c5cccnc5)n4)c3)cc(C(F)(F)F)c2)cn1` [nilotinib] displayed a KD of 2.02E^−7 M. Still for that read-out and setting: then `CN(C)CC[C@H](CSc1ccccc1)Nc1ccc(S(=O)(=O)NC(=O)c2ccc(N3CCN(Cc4ccccc4-c4ccc(Cl)cc4)CC3)cc2)cc1[N+](=O)[O-]` [ABT-737], with 7.19 E^−7 M. `CC(C)c1cc(C(C)C)c(CC(=O)NS(=O)(=O)Oc2c(C(C)C)cccc2C(C)C)c(C(C)C)c1` [avasimibe]: at SOAT1 [1], the “SPR single-concentration screen (Biacore T200, CM5 chip, immobilised SOAT1)” value is “including three positive controls: avasimibe, nevanimibe, and CI-976”. In turn, `Cc1cc(C)c2c(c1)[C@@H](N(Cc1cc(C(F)(F)F)cc(C(F)(F)F)c1)c1nnn(C)n1)CCCN2C[C@H]1CC[C@H](C(=O)O)CC1` [evacetrapib] displayed a KD at SOAT1 [2] of 3.91 E^−6 M.

B1: sterol O-acyltransferase 1 (SOAT1), human, with a carboxy-terminal 6xHis-tag (enzyme, UniProt P35610-1 1-550, looked up)
chain: MVGEEKMSLRNRLSKSRENPEEDEDQRNPAKESLETPSNGRIDIKQLIAKKIKLTAEAEELKPFFMKEVGSHFDDFVTNLIEKSASLDNGGCALTTFSVLEGEKNNHRAKDLRAPPEQGKIFIARRSLLDELLEVDHIRTIYHMFIALLILFILSTLVVDYIDEGRLVLEFSLLSYAFGKFPTVVWTWWIMFLSTFSVPYFLFQHWATGYSKSSHPLIRSLFHGFLFMIFQIGVLGFGPTYVVLAYTLPPASRFIIIFEQIRFVMKAHSFVRENVPRVLNSAKEKSSTVPIPTVNQYLYFLFAPTLIYRDSYPRNPTVRWGYVAMKFAQVFGCFFYVYYIFERLCAPLFRNIKQEPFSARVLVLCVFNSILPGVLILFLTFFAFLHCWLNAFAEMLRFGDRMFYKDWWNSTSYSNYYRTWNVVVHDWLYYYAYKDFLWFFSKRFKSAAMLAVFAVSAVVHEYALAVCLSFFYPVLFVLFMFFGMAFNFIVNDSRKKPIWNVLMWTSLFLGNGVLLCFYSQEWYARQHCPLKNPTFLDYVRPRSWTCRYVF
notes: sterol O-acyltransferase 1 (SOAT1), human; NCBI ID 6646) cloned into pCAG; no removal of the His-tag is described; also called SOAT1 protein
What is called stoichiometry N is the number of molecules, sites or subunits per partner or assembly. B1: the “stoichiometry N” value in data set [3] worked out at 2.

The values are drawn from publication PMC9361549, “High-affinity SOAT1 ligands remodeled cholesterol metabolism program to inhibit tumor growth” (BMC Medicine, 2022).
